Test systems include DU-145 prostate; COLO 205 colon; NCI-H226 lung; CCRF-CEM leukemia; OVCAR-8 ovarian; SK-MEL-5 melanoma; EKVX NSCLC; HT29 colon; BT-549 breast; SF-295 CNS.
Holding throughout (assay): NCI-60 cell line screen, 48 h

Values joined by “and” are separate entries in the source; they are usually repeats but may differ in a detail not shown here. Equal values may be shown once.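 Tested at 5 concentrations; 48 h exposure; 96-well plates; endpoints linearly interpolated, else capped at highest concentration. GI50 is the concentration that inhibits growth by half. The concentration for full growth arrest is given as TGI.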

For the molecule `N#[N+]c1ccc(Nc2ccccc2)cc1`, the GI50 with DU-145 prostate, in the experiment with COLO 205 colon, in the experiment on NCI-H226 lung, in the experiment with CCRF-CEM leukemia, in the experiment with OVCAR-8 ovarian and in the experiment on SK-MEL-5 melanoma was over 50 µg/mL throughout. For the same molecule, the GI50 with EKVX NSCLC, in the experiment with HT29 colon, with BT-549 breast and with SF-295 CNS was over 50 µg/mL in each case. Besides, the TGI with DU-145 prostate, with COLO 205 colon, in the experiment with NCI-H226 lung, in the experiment on CCRF-CEM leukemia, in the experiment on OVCAR-8 ovarian and in the experiment with SK-MEL-5 melanoma was over 50 µg/mL in each case. Further, the TGI with EKVX NSCLC, with HT29 colon, in the experiment on BT-549 breast and with SF-295 CNS was over 50 µg/mL in each case.
As for `COc1ccccc1C(=O)N(Cc1ccccc1)c1ccc(Cl)c(C(=O)OC(C)C)c1`, the TGI in the experiment with DU-145 prostate is over 100 µM; in the experiment with COLO 205 colon, 50.9 µM; in the experiment with NCI-H226 lung, 58 µM; in the experiment on CCRF-CEM leukemia, over 100 µM; with OVCAR-8 ovarian it was over 100 µM; in the experiment on SK-MEL-5 melanoma, 26.1 µM. For the same molecule, the TGI with EKVX NSCLC is over 87.8 µM; with HT29 colon it was over 74 µM; with BT-549 breast, over 100 µM; in the experiment with SF-295 CNS it was over 100 µM.
Turning to `COc1ccccc1NC(=O)C1=C(C)NC(C)=C(C(=O)Nc2ccccc2OC)C1c1ccco1`, the TGI in the experiment on DU-145 prostate was over 100 µM; in the experiment with COLO 205 colon, 23 µM; with NCI-H226 lung it was 33.1 µM; with CCRF-CEM leukemia it was 59.8 µM; in the experiment on OVCAR-8 ovarian, over 100 µM; in the experiment with SK-MEL-5 melanoma, 15.4 µM. In addition, the TGI in the experiment with EKVX NSCLC was over 83.7 µM; in the experiment on HT29 colon it was 14.7 µM; with BT-549 breast, over 100 µM; in the experiment with SF-295 CNS, over 44.2 µM.
As to `COc1cc(NC2CCCCC2O)c2nc(-c3ccc(Cl)cc3)ccc2c1` (configuration not stated), the GI50 was 12.7 µM with DU-145 prostate; 6.87 µM in the experiment on COLO 205 colon; 18.6 µM in the experiment on NCI-H226 lung; 4.34 µM with CCRF-CEM leukemia; 12.2 µM with OVCAR-8 ovarian; 10.6 µM with SK-MEL-5 melanoma. Moreover, the GI50 in the experiment on EKVX NSCLC is 18.1 µM; in the experiment with HT29 colon, 4.29 µM; in the experiment on BT-549 breast it was 40.7 µM; in the experiment with SF-295 CNS, 2.8 µM. Further, the TGI in the experiment on DU-145 prostate is 58 µM; in the experiment on COLO 205 colon, 20.7 µM; in the experiment on NCI-H226 lung it was over 100 µM; in the experiment on CCRF-CEM leukemia it was 68.5 µM; with OVCAR-8 ovarian, over 100 µM; in the experiment with SK-MEL-5 melanoma, 23.1 µM. The TGI is over 100 µM with EKVX NSCLC, 23.8 µM with HT29 colon, over 100 µM with BT-549 breast and 12.1 µM in the experiment with SF-295 CNS.
Turning to `COc1cc2c3cc1Oc1c(OC)c(OC)cc4c1C(Cc1ccc(O)c(c1)Oc1ccc(cc1)CC3N(C)CC2)N(C)CC4` (configuration not stated), the GI50 was 18.2 µM in the experiment with DU-145 prostate; 14.3 µM in the experiment with COLO 205 colon; 34.4 µM with NCI-H226 lung; 21.4 µM in the experiment on OVCAR-8 ovarian; 11 µM with SK-MEL-5 melanoma; 1.78 µM in the experiment on HT29 colon. Besides, the figures for the GI50 in the experiment on BT-549 breast and in the experiment with SF-295 CNS were 14.7 µM and 13.3 µM, respectively. For the same molecule, the TGI in the experiment with DU-145 prostate is > 100 µM and 84.4 µM; in the experiment on COLO 205 colon, > 100 µM and 30.4 µM; in the experiment with NCI-H226 lung, over 100 µM; in the experiment on CCRF-CEM leukemia, 81.8 µM and 57.6 µM; in the experiment on OVCAR-8 ovarian it was over 100 µM; with SK-MEL-5 melanoma, 52 µM and 23.3 µM. Besides, the TGI is over 100 µM with EKVX NSCLC; > 100 µM and 32.8 µM in the experiment on HT29 colon; 60.1 µM and 35.6 µM with BT-549 breast; 59.1 µM and 29.8 µM in the experiment with SF-295 CNS.
Turning to `COc1ccc(C2NC(=S)NC3=C2CCOc2c3ccc3ccccc23)cc1` (configuration not stated), the GI50 was over 100 µM in the experiment on DU-145 prostate; 53.8 µM in the experiment on COLO 205 colon; 58.5 µM in the experiment with NCI-H226 lung; over 100 µM in the experiment on CCRF-CEM leukemia; 32.6 µM in the experiment with OVCAR-8 ovarian; 18.2 µM in the experiment on SK-MEL-5 melanoma. The GI50 in the experiment on EKVX NSCLC was 17.4 µM; in the experiment with HT29 colon, 36.6 µM; with BT-549 breast, 68.8 µM; in the experiment on SF-295 CNS it was 19.1 µM. Also, the TGI in the experiment with DU-145 prostate, in the experiment with COLO 205 colon, in the experiment on NCI-H226 lung, with CCRF-CEM leukemia, in the experiment on OVCAR-8 ovarian and with SK-MEL-5 melanoma was over 100 µM each time. In addition, the TGI in the experiment with EKVX NSCLC, in the experiment on HT29 colon, in the experiment with BT-549 breast and with SF-295 CNS was over 100 µM each time.
Take `C[As](C)SC1OCC(O)C(O)C1O` (configuration not stated): the GI50 with DU-145 prostate was 0.122 µM; with COLO 205 colon, 0.747 µM; with NCI-H226 lung, 0.68 µM; with CCRF-CEM leukemia it was 0.4 µM; in the experiment on OVCAR-8 ovarian, 0.284 µM; in the experiment on SK-MEL-5 melanoma it was 0.166 µM. The GI50 is 1.29 µM in the experiment with EKVX NSCLC, 0.26 µM in the experiment with HT29 colon, 0.363 µM in the experiment on BT-549 breast and 7.18 µM with SF-295 CNS. Moreover, the TGI in the experiment with DU-145 prostate stood at 0.824 µM; in the experiment on COLO 205 colon, 3.37 µM; in the experiment on NCI-H226 lung, 2.19 µM; with CCRF-CEM leukemia it was 6.42 µM; with OVCAR-8 ovarian, 2.82 µM; with SK-MEL-5 melanoma, 0.382 µM. For the same molecule, the TGI is 6.23 µM in the experiment on EKVX NSCLC, over 100 µM in the experiment with HT29 colon and 1.5 µM in the experiment with BT-549 breast.
With `CC1OC(OC2C(O)C(O)C(O)C(O)C2O)C(N)CC1N=C(N)C(=O)O` (configuration not stated), the TGI with DU-145 prostate, with COLO 205 colon, in the experiment on NCI-H226 lung, in the experiment with CCRF-CEM leukemia, with OVCAR-8 ovarian and in the experiment on SK-MEL-5 melanoma was over 100 µM each time. In addition, the TGI with EKVX NSCLC, with HT29 colon, with BT-549 breast and with SF-295 CNS was over 100 µM throughout.
In the case of `O=CN1N=C(c2cccc(Nc3ccnc4cc(Cl)ccc34)c2)CC1c1ccc(Cl)cc1` (configuration not stated), the GI50 was 4.17 µM in the experiment with DU-145 prostate; 1.39 µM in the experiment with COLO 205 colon; over 100 µM with NCI-H226 lung; 2.34 µM in the experiment with CCRF-CEM leukemia; 3.8 µM with OVCAR-8 ovarian; 1.86 µM in the experiment with SK-MEL-5 melanoma. Further, the GI50 was over 100 µM with EKVX NSCLC, 0.477 µM in the experiment on HT29 colon, 1.36 µM in the experiment on BT-549 breast and 1.06 µM in the experiment with SF-295 CNS. In addition, the TGI in the experiment with DU-145 prostate is over 100 µM; in the experiment with COLO 205 colon, 6.67 µM; in the experiment on NCI-H226 lung, over 100 µM; in the experiment with CCRF-CEM leukemia, over 100 µM; in the experiment on OVCAR-8 ovarian, over 100 µM; in the experiment with SK-MEL-5 melanoma it was 10.6 µM. Also, the TGI in the experiment with EKVX NSCLC is over 100 µM; with HT29 colon, 3.65 µM; with BT-549 breast it was 16.2 µM; in the experiment with SF-295 CNS it was 8.12 µM.

(Values after PubChem BioAssay (NCI).)
